Laboratory results published in patent US20210254056A1, “IDENTIFICATION AND TARGETED MODULATION OF GENE SIGNALING NETWORKS” (CAMP4 THERAPEUTICS CORPORATION, priority 2017, published 2021).

Tested on: hepatocytes
Assay: RNA-seq of hepatocytes treated with Phase III failure compounds
Settings: for significant changes in gene expression: RNA-seq of Table 36, FPKM≥0.5, log 2(fold-change)≥1, q-value≤0.05; for significant modulation of expression of any of the genes analyzed: p≤0.05
Procedure: RNA-seq was performed to determine the effects of the compounds on hepatocytes.
Significance was determined by the criteria of FPKM≥0.5, a log 2(fold-change)≥1, and a […].

Structure (SMILES): COCCOc1ccc(N2CCN(CCn3ncc4c3nc(N)n3nc(-c5ccco5)nc43)CC2)cc1 [Preladenant]
- Number (#) of genes having significantly changed expression (RNA-seq, Phase III failure compounds, hepatocytes, significance: FPKM≥0.5, log 2(fold-change)≥1, q-value≥0.05 (so in the source)): 317
- significant modulation of expression of disease genes (RNA-seq, q≤0.05, hepatocytes, genes in the value or listed in the block): significantly (q≤0.05) modulate expression
- B2M expression, RNA-seq result (gene B2M, hepatocytes): 0.09
- B9D2 expression, RNA-seq result (gene B9D2, hepatocytes): −0.56
- BAAT expression, RNA-seq result (gene BAAT, hepatocytes): −0.58
- BBOX1 expression, RNA-seq result (gene BBOX1, hepatocytes): −0.56
- BBS10 expression, RNA-seq result (gene BBS10, hepatocytes): −0.21
- BCHE expression, RNA-seq result (gene BCHE, hepatocytes): −0.63
- BCKDHB expression, RNA-seq result (gene BCKDHB, hepatocytes): −0.78
- BCKDK expression, RNA-seq result (gene BCKDK, hepatocytes): −0.48
- BCO1 expression, RNA-seq result (gene BCO1, hepatocytes): −1.07
- BCR expression, RNA-seq result (gene BCR, hepatocytes): −0.62
- BLNK expression, RNA-seq result (gene BLNK, hepatocytes): 0.53
- BLOC1S3 expression, RNA-seq result (gene BLOC1S3, hepatocytes): 0.3
- BMPR1A expression, RNA-seq result (gene BMPR1A, hepatocytes): 0.11
- BRAF expression, RNA-seq result (gene BRAF, hepatocytes): 0.46
- BSCL2 expression, RNA-seq result (gene BSCL2, hepatocytes): −0.26
- BTD expression, RNA-seq result (gene BTD, hepatocytes): −0.16
- C4A expression, RNA-seq result (gene C4A, hepatocytes): 0.16
- C9 expression, RNA-seq result (gene C9, hepatocytes): −0.38
- C10orf10 expression, RNA-seq result (gene C10orf10, hepatocytes): 0.14
- C10orf11 expression, RNA-seq result (gene C10orf11, hepatocytes): −0.32
- C15orf41 expression, RNA-seq result (gene C15orf41, hepatocytes): −0.17
- CA2 expression, RNA-seq result (gene CA2, hepatocytes): 0.76
- CA5A expression, RNA-seq result (gene CA5A, hepatocytes): −0.56
- CA12 expression, RNA-seq result (gene CA12, hepatocytes): 0.43
- CAV1 expression, RNA-seq result (gene CAV1, hepatocytes): −0.02
- CCND1 expression, RNA-seq result (gene CCND1, hepatocytes): −0.89
- CD46 expression, RNA-seq result (gene CD46, hepatocytes): 0.34
- CD81 expression, RNA-seq result (gene CD81, hepatocytes): −0.26
- CD320 expression, RNA-seq result (gene CD320, hepatocytes): −0.95
- CDAN1 expression, RNA-seq result (gene CDAN1, hepatocytes): −0.32
- CDH1 expression, RNA-seq result (gene CDH1, hepatocytes): −0.29
- CEP19 expression, RNA-seq result (gene CEP19, hepatocytes): −0.54
- CEP83 expression, RNA-seq result (gene CEP83, hepatocytes): 0.05
- CEP164 expression, RNA-seq result (gene CEP164, hepatocytes): −0.48
- CEP290 expression, RNA-seq result (gene CEP290, hepatocytes): 0.41
- CFB expression, RNA-seq result (gene CFB, hepatocytes): 0.26
- CFHR2 expression, RNA-seq result (gene CFHR2, hepatocytes): −0.22
- CHRM3 expression, RNA-seq result (gene CHRM3, hepatocytes): 0.06
- CIDEC expression, RNA-seq result (gene CIDEC, hepatocytes): −1.38
- CLDN1 expression, RNA-seq result (gene CLDN1, hepatocytes): −0.26
- COG1 expression, RNA-seq result (gene COG1, hepatocytes): −0.08

Structure (SMILES): CCCn1c(=O)c2[nH]c(C34CC5CC(CC3C5)C4)nc2n(CCC)c1=O [Rolofylline (KW-3902), Rolofylline]
- significant changes in gene expression: not observed to cause any significant changes in gene expression
- significant modulation of expression of any of the genes analyzed (RNA-seq, hepatocytes): not observed to significantly modulate expression

Structure (SMILES): CNC1(C)[C@H]2CCC(C2)C1(C)C.Cl (stereo partly drawn) [S-(+)-MecaMylaMine Hydrochloride]
- significant changes in gene expression: not observed to cause any significant changes in gene expression
- significant modulation of expression of any of the genes analyzed (RNA-seq, hepatocytes): not observed to significantly modulate expression

Structure (SMILES): Cn1cnc2c(F)c(Nc3ccc(Br)cc3Cl)c(C(=O)NOCCO)cc21 [Selumetinib]
- RNA-seq results, CYP2B6 expression: 0.38
- RNA-seq results, CYP2C19 expression: 0.76
- RNA-seq results, CYP2D6 expression: 0.03
- RNA-seq results, CYP3A4 expression: 0.08
- RNA-seq results, CYP7B1 expression: −0.15
- RNA-seq results, CYP39A1 expression: −0.27
- RNA-seq results: CYP2B6 expression: −0.08
- RNA-seq results: CYP2C19 expression: 0.1
- RNA-seq results: CYP2D6 expression: 0.16
- RNA-seq results: CYP3A4 expression: 0.11
- RNA-seq results: CYP7B1 expression: −0.3
- RNA-seq results: CYP39A1 expression: 0.08
- RNA-seq results: A1BG expression (gene A1BG, hepatocytes): 0.00
- RNA-seq results: AGTR1 expression (gene AGTR1, hepatocytes): −0.55
- RNA-seq results: AGXT expression (gene AGXT, hepatocytes): 0.22
- RNA-seq results: AHI1 expression (gene AHI1, hepatocytes): 0.01
- RNA-seq results: AMPD3 expression (gene AMPD3, hepatocytes): 0.22
- RNA-seq results: AMT expression (gene AMT, hepatocytes): 0.29
- RNA-seq results: ANGPTL3 expression (gene ANGPTL3, hepatocytes): −0.67
- RNA-seq results: ANKS4B expression (gene ANKS4B, hepatocytes): −0.06
- RNA-seq results: ANKS6 expression (gene ANKS6, hepatocytes): −0.02
- RNA-seq results: ANPEP expression (gene ANPEP, hepatocytes): 0.04
- RNA-seq results: AOC2 expression (gene AOC2, hepatocytes): 0.28
- RNA-seq results: APOA2 expression (gene APOA2, hepatocytes): −0.45
- RNA-seq results: APOA5 expression (gene APOA5, hepatocytes): 0.13
- RNA-seq results: APOB expression (gene APOB, hepatocytes): −0.10
- RNA-seq results: COG5 expression (gene COG5, hepatocytes): −0.14
- RNA-seq results: COG6 expression (gene COG6, hepatocytes): 0.1
- RNA-seq results: COL1A1 expression (gene COL1A1, hepatocytes): 0.41
- RNA-seq results: COX6A1 expression (gene COX6A1, hepatocytes): 0.02
- RNA-seq results: CP expression (gene CP, hepatocytes): 0.26
- RNA-seq results: CPS1 expression (gene CPS1, hepatocytes): 0.52
- RNA-seq results: CPT1A expression (gene CPT1A, hepatocytes): 0.19
- RNA-seq results: CPT2 expression (gene CPT2, hepatocytes): −0.2
- RNA-seq results: CROT expression (gene CROT, hepatocytes): −0.4
- RNA-seq results: CSPP1 expression (gene CSPP1, hepatocytes): −0.14
- RNA-seq results: CTC1 expression (gene CTC1, hepatocytes): 0.03
- RNA-seq results: CTDSP2 expression (gene CTDSP2, hepatocytes): −0.14
- RNA-seq results: CTH expression (gene CTH, hepatocytes): 0.67
- RNA-seq results: CTNS expression (gene CTNS, hepatocytes): 0.69
- RNA-seq results: CTSF expression (gene CTSF, hepatocytes): 0.19
- RNA-seq results: CTSK expression (gene CTSK, hepatocytes): 0.08
- RNA-seq results: CYB5A expression (gene CYB5A, hepatocytes): −0.09
- RNA-seq results: CYB5R3 expression (gene CYB5R3, hepatocytes): 0.1
- RNA-seq results: CYP27A1 expression (gene CYP27A1, hepatocytes): 0.14
- RNA-seq results: DAO expression (gene DAO, hepatocytes): −0.11
- RNA-seq results: DBT expression (gene DBT, hepatocytes): −0.16
- RNA-seq results: DCDC2 expression (gene DCDC2, hepatocytes): −1.04
- RNA-seq results: DCXR expression (gene DCXR, hepatocytes): 0.01
- RNA-seq results: FABP1 expression (gene FABP1, hepatocytes): 0.06
- RNA-seq results: FADD expression (gene FADD, hepatocytes): −0.08
- RNA-seq results: FAM111A expression (gene FAM111A, hepatocytes): 0.12
- RNA-seq results: FAM111B expression (gene FAM111B, hepatocytes): −1.27
- RNA-seq results: FAN1 expression (gene FAN1, hepatocytes): −0.37
- RNA-seq results: FARS2 expression (gene FARS2, hepatocytes): −0.21
- RNA-seq results: FASLG expression (gene FASLG, hepatocytes): −0.55
- RNA-seq results: FGA expression (gene FGA, hepatocytes): 0.07
- RNA-seq results: FGD1 expression (gene FGD1, hepatocytes): −0.4
- RNA-seq results: FGFR2 expression (gene FGFR2, hepatocytes): −0.97
- RNA-seq results: FIG4 expression (gene FIG4, hepatocytes): 0.29
- RNA-seq results: FIS1 expression (gene FIS1, hepatocytes): −0.06
- RNA-seq results: FTCD expression (gene FTCD, hepatocytes): 0.18
- RNA-seq results: FTH1 expression (gene FTH1, hepatocytes): 0.45
- RNA-seq results: FUCA1 expression (gene FUCA1, hepatocytes): 0.02
- RNA-seq results: FXN expression (gene FXN, hepatocytes): −0.33
- RNA-seq results: G6PC3 expression (gene G6PC3, hepatocytes): −0.17
- RNA-seq results: G6PC expression (gene G6PC, hepatocytes): 1.05
- RNA-seq results: G6PD expression (gene G6PD, hepatocytes): 0.7
- RNA-seq results: GALK1 expression (gene GALK1, hepatocytes): 0.05
- RNA-seq results: GALK2 expression (gene GALK2, hepatocytes): 0.08
- RNA-seq results: GALT expression (gene GALT, hepatocytes): 0.37
- RNA-seq results: GATA6 expression (gene GATA6, hepatocytes): −0.01
- RNA-seq results: GATM expression (gene GATM, hepatocytes): −0.21
- RNA-seq results: GBA expression (gene GBA, hepatocytes): 0.33
- RNA-seq results: GBE1 expression (gene GBE1, hepatocytes): 0.06
- RNA-seq results: GCH1 expression (gene GCH1, hepatocytes): 0.02
- RNA-seq results: GCKR expression (gene GCKR, hepatocytes): 0.43
- RNA-seq results: GCLC expression (gene GCLC, hepatocytes): 0.07
- RNA-seq results: GOSH expression (gene GOSH, hepatocytes): −0.26
- RNA-seq results: RRM2B (gene RRM2B, hepatocytes): −0.30
- RNA-seq results: RSAD1 (gene RSAD1, hepatocytes): −0.06
- RNA-seq results: SAMHD1 (gene SAMHD1, hepatocytes): −0.29
- RNA-seq results: SC5D (gene SC5D, hepatocytes): −0.23
- RNA-seq results: SCARB1 (gene SCARB1, hepatocytes): 0.08
- RNA-seq results: SCN9A (gene SCN9A, hepatocytes): 0.14
- RNA-seq results: SDCCAG8 (gene SDCCAG8, hepatocytes): −0.25
- RNA-seq results: SEPN1 (gene SEPN1, hepatocytes): −0.10
- RNA-seq results: SERAC1 (gene SERAC1, hepatocytes): −0.29
- RNA-seq results: SERPINA1 (gene SERPINA1, hepatocytes): 0.01
- RNA-seq results: SERPING1 (gene SERPING1, hepatocytes): −0.11
- RNA-seq results: SERPINI1 (gene SERPINI1, hepatocytes): −0.36
- RNA-seq results: SETBP1 (gene SETBP1, hepatocytes): 0.22
- RNA-seq results: SFXN4 (gene SFXN4, hepatocytes): −0.33
- RNA-seq results: SLC10A1 (gene SLC10A1, hepatocytes): 0.00
- RNA-seq results: SLC10A3 (gene SLC10A3, hepatocytes): 0.23
- RNA-seq results: SLC10A5 (gene SLC10A5, hepatocytes): 0.63
- RNA-seq results: SLC10A7 (gene SLC10A7, hepatocytes): −0.35
- RNA-seq results: SLC11A2 (gene SLC11A2, hepatocytes): −0.26
- RNA-seq results: SLC19A1 (gene SLC19A1, hepatocytes): −0.42
- RNA-seq results: SLC19A2 (gene SLC19A2, hepatocytes): 0.22
- RNA-seq results: SLC19A3 (gene SLC19A3, hepatocytes): 0.00
- RNA-seq results: SLC22A1 (gene SLC22A1, hepatocytes): −0.07
- RNA-seq results: SLC22A5 (gene SLC22A5, hepatocytes): 0.32
- RNA-seq results: SLC25A1 (gene SLC25A1, hepatocytes): 0.11
- RNA-seq results: SLC25A10 (gene SLC25A10, hepatocytes): −0.12
- RNA-seq results: SLC25A12 (gene SLC25A12, hepatocytes): −0.11
- RNA-seq results: SLC25A13 (gene SLC25A13, hepatocytes): −0.15
- RNA-seq results: SLC25A15 (gene SLC25A15, hepatocytes): −0.21
- RNA-seq results: SLC25A19 (gene SLC25A19, hepatocytes): −0.35
- RNA-seq results: SLC25A20 (gene SLC25A20, hepatocytes): −0.28
- RNA-seq results: SLC25A29 (gene SLC25A29, hepatocytes): 0.25
- RNA-seq results: SLC25A32 (gene SLC25A32, hepatocytes): −0.44
